For one molecule, Ki results are on record in publication PMC3561402, “Signaling Pathways of ESE-16, an Antimitotic and Anticarbonic Anhydrase Estradiol Analog, in Breast Cancer Cells” (PLoS ONE, 2013).

What is called Ki is the equilibrium dissociation constant of an inhibitor or competing ligand from its target.

The test concerns the target T1, carbonic anhydrase II (wild-type CAII) (Homo sapiens, UniProt P00918).
T1 construct: gene CA2
Kind of test: […] exchange, membrane inlet mass spectrometry; Henderson tight-binding analysis. Type of test: biochemical.

`CCc1cc2c(cc1OS(N)(=O)=O)CC[C@@H]1[C@@H]2CC[C@]2(C)C=CC[C@@H]12` [ESE-16, 2-ethyl-3-O-sulphamoyl-estra-1,3,5(10)16-tetraene] registered a Ki of 569 ± 61 nM.
